Measurements reported in article PMC6270149, “Bioactive Flavone-C-Glycosides of the African Medicinal Plant Biophytum umbraculum” (Molecules, 2013).
Read-outs that look alike come from different tables or passages of the source.

Columns and labels:
DPPH radical scavenging = settings: triplicates, mean ± SD; for IC50: isolated compounds dissolved in DMSO
Description: Pure substances and crude extracts (Soxhlet) were dissolved in DMSO, and the assay was carried out as reported previously. Quercetin (Sigma-Aldrich) was used as positive control.

xanthine oxidase (XO) = xanthine oxidase (XO) (Bos taurus, UniProt P80457); assay: Inhibition of xanthine oxidase (XO); type: biochemical; settings: isolated compounds dissolved in DMSO; triplicates, mean ± SD
Description: (§1) Pure substances and crude extracts (Soxhlet) were dissolved in DMSO, and the assay was carried out as reported previously.

15-lipoxygenase (15-LO) = molecular target: T1, 15-lipoxygenase (15-LO) (Glycine max, UniProt P08170); assay: Inhibition of 15-lipoxygenase (15-LO); type: biochemical; settings: isolated compounds dissolved in DMSO, triplicates, mean ± SD
T1 sequence (P08170 1-839): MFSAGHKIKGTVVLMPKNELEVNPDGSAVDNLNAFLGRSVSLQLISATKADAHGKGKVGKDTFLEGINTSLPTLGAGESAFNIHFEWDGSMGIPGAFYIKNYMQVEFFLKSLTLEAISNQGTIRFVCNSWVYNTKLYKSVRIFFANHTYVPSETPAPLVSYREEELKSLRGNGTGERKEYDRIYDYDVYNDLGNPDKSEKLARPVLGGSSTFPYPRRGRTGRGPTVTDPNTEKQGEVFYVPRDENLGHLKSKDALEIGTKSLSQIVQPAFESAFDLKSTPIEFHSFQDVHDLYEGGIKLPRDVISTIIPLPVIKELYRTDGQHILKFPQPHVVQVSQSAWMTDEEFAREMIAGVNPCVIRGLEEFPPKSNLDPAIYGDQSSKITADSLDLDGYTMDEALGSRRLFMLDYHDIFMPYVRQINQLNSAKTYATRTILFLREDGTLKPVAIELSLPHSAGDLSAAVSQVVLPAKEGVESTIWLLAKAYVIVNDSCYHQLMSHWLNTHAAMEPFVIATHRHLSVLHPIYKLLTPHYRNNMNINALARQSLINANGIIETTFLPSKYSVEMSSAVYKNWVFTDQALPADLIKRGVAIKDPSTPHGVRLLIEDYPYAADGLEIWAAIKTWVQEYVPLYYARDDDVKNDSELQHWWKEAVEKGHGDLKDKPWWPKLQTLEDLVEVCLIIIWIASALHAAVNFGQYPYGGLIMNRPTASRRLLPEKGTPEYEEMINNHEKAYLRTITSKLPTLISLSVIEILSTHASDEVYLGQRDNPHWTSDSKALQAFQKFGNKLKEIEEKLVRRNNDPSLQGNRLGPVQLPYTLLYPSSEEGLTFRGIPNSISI
Description: as §1

[1] = read-out: 15-lipoxygenase (15-LO) inhibition IC50 ± SD

xanthine oxidase (XO), sequence (P80457 whole entry): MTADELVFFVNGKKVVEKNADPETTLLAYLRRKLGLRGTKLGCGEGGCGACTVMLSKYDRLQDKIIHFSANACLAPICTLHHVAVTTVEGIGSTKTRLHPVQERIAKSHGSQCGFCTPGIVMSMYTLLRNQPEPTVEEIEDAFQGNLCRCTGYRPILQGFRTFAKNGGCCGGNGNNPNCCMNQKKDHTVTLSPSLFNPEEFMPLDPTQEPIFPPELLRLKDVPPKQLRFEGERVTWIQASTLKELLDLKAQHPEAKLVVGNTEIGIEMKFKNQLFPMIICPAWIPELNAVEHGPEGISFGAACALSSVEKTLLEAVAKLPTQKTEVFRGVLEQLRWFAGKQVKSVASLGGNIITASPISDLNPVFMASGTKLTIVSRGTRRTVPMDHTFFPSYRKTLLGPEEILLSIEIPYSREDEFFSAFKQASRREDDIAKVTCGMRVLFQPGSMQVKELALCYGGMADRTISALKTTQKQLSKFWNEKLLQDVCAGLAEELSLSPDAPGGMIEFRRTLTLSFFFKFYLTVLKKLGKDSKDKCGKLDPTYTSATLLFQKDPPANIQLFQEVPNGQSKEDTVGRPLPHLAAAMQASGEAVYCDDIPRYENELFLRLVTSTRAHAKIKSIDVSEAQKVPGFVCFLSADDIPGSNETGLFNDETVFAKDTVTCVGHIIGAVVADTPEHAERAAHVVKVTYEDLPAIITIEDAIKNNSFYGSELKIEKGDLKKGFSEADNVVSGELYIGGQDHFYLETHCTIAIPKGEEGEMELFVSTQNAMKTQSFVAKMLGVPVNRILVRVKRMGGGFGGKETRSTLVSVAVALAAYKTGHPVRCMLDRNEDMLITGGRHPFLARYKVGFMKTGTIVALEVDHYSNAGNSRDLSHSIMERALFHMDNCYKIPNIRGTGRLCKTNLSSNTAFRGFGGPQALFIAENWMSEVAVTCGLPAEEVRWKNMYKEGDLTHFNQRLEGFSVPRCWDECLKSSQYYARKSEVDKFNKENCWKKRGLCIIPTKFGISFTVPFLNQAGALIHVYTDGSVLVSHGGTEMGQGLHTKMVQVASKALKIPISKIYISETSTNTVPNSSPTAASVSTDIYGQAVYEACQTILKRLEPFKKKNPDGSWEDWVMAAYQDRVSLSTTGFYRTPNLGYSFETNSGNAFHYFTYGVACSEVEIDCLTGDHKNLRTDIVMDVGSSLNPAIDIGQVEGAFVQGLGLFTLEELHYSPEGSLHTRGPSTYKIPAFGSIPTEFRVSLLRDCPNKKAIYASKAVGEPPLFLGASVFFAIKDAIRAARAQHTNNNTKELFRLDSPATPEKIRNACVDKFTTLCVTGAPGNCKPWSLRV

DPPH radical scavenging IC50 ± SD (DPPH radical scavenging; extracts (Soxhlet) dissolved in DMSO) [µg/mL] | Compound | IC50 (DPPH radical scavenging) [µM] | IC50 (xanthine oxidase (XO)) [µM] | IC50 (15-lipoxygenase (15-LO); [1]) [µM] | IC50 (15-lipoxygenase (15-LO); 15-lipoxygenase (15-LO) inhibition IC50 ± SD) [µM]
– | C[C@@H]1O[C@@H](O[C@H]2C(=O)[C@@H](O)[C@H](C)O[C@@H]2c2c(O)cc3oc(-c4ccc(O)cc4)cc(=O)c3c2O)[C@H](O)[C@H](O)[C@H]1O [Cassiaoccidentalin A (1), cassiaoccidentalin A] | > 167 | 150 ± 7.4 | 99.9 ± 2.5 | –
– | O=c1cc(-c2ccc(O)c(O)c2)oc2cc(O)c([C@@H]3O[C@H](CO)[C@@H](O)[C@H](O)[C@H]3O)c(O)c12 [Isoorientin (3), isoorientin] | 18.1 ± 1.1 | 117 ± 13.5 | – | 86.4 ± 0.5
– | O=c1cc(-c2ccc(O)cc2)oc2cc(O)c([C@@H]3O[C@H](CO)[C@@H](O)[C@H](O)[C@H]3O)c(O)c12 [Isovitexin (2), isovitexin] | 96 ± 3.6 | > 167 | 107 ± 2.1 | –
4.4 ± 0.4 | O=c1c(O)c(-c2ccc(O)c(O)c2)oc2cc(O)cc(O)c12 [Quercetin, reference compound] | 13.7 ± 1.3 | – | – | –
